Source: US7413853B2, “Modulation of metabolism of steroids and xenobiotics” (The Salk Institute for Biological Studies, priority 2001, dated 2008)

Legend:
[1] = test system: rat CYP3A23 gene cellular promoter
Procedure: (§1) The PCR-amplified sequences and target mutagenesis were confirmed by DNA sequencing.
(§2) All compounds were purchased from Sigma.
The above notion would predict: (1) The SXR/PXR response element is essential for the activation of CYP3A genes; and (2) The response elements of SXR and PXR are interchangeable. Therefore, mutagenesis analysis was performed on the promoter of the rat CYP3A23 gene to examine these predictions.

SXR [2] = biological target: T1, SXR (Homo sapiens, UniProt O75469)
T1 sequence (O75469 1-434): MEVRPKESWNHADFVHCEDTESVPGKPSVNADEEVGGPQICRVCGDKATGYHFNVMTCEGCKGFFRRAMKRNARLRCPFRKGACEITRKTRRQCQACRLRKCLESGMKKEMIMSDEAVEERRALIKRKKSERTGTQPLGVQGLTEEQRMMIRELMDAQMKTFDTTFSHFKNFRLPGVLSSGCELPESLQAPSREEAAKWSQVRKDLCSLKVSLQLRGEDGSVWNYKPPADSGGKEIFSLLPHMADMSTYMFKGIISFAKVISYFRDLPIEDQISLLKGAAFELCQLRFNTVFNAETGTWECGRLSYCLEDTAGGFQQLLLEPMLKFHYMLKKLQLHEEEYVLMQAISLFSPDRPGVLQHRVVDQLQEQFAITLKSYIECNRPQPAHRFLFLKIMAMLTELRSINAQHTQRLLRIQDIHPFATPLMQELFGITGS
From the text: (§3) The reporter gene comprises a thymadine kinase (TK) linked to UGT1A6/DR-3 linked to a luciferace (LUC).
(§4) In an exemplary assay, a luciferase reporter gene containing the UGT1A6/DR-3 upstream of a minimal thymidine kinase (tk) promoter was constructed and transfected into monkey kidney CV-1 cells together with expression vectors for SXR, PXR, or CAR.
(§5) In FIG. 2, the tk-UGT1A6/DR3-Luc construct comprises a UGT inverted or direct repeat and/or a nuclear receptor binding site such that activation of the response element results in transcription of UGT. […] The response element can also comprise an inverse repeat of a suitable half site separated by a 6 nucleotide spacer, or an inverse repeat of a variant thereof, separated by a 6 nucleotide spacer.

PXR [3] = biological target: T2, PXR (Mus musculus, UniProt O54915); details: tk-UGT1A6/DR-3-Luc, CV-1 cells
T2 sequence (O54915 1-431): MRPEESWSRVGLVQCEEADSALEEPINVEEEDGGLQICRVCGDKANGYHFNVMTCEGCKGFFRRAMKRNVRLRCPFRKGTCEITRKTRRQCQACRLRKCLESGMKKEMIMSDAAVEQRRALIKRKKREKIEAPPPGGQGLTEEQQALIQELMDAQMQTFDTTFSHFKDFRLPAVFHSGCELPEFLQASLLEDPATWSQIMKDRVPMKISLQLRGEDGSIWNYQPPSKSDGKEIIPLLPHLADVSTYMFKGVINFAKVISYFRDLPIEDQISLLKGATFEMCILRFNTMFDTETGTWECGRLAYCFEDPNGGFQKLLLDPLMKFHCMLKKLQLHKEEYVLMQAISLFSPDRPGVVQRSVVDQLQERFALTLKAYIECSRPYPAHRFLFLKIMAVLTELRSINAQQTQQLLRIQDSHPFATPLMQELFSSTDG
From the text: as §3, §4, §5

[4] = test system: human CYP3A4 gene cellular promoter; details: hepatocytes
From the text: as §1, §2

PXR [5] = biological target: T2, PXR; assay: Activation of mouse receptor PXR by the panel of compounds
CYP3A11 gene = details: mouse, in vivo
Procedure: The animals were allowed free access to food and water at all times. […] When necessary, mice were treated with a single intraperitoneal injection of DEX (50 mg/kg), PCN (40 mg/kg), or CTZ (50 mg/kg).
To examine the drug response of the endogenous liver CYP3A11 gene, animals were treated with single dose of compounds 24 h before sacrifice, and the CYP3A11 gene expression was evaluated by Northern blot analysis on liver total RNA. […] To detect specific transcripts, [^32P]-cDNA probes labeled by Random Primer Labeling Kit (Boringher) were hybridized to the membranes. The probe used to detect transgene contains both the SXR cDNA and the SV40 sequences. […] The filters were subsequently stripped and rehybridized with a murine glyceraldehyde-3-phosphate dehydrogenase (GAPDH) cDNA probe for RNA loading normalization.
Tissues were harvested 24 h later and subjected to Northern blot analysis. Membranes were probed with CYP3A11 cDNA probe, and were subsequently stripped and re-probed with GAPDH and transgene specific probes.

SXR [6] = assay: Activation of SXR in transfection-based assays
Procedure: To characterize its response properties, a large variety of steroids, including intermediate and major products of known steroid biosynthetic pathways were tested.

| SMILES | PXR and/or SXR-mediated activation of mutated CYP3A23 promoter [1] | inducibility of CYP3A23 promoter with DR-3 replaced by IR-6 [1] | induction of CYP3A23 cellular promoter reporter [1] | activation of the UGT reporter by SXR (SXR [2]) | PXR-mediated UGT activation (PXR [3]) | activation of CYP3A4 cellular promoter reporter [4] | activation of CYP3A23 cellular promoter reporter [1] | activation of PXR (PXR [5]) | induction of liver CYP3A11 expression (CYP3A11 gene) | activation of SXR by compounds known to induce CYP3A4 (SXR [6]) | SXR activation of DR-3, DR-4 and DR-5 elements (SXR [6]; series of transfections) | activation of SXR (SXR [6]; transfection-based assays, steroids tested) |
| --- | --- | --- | --- | --- | --- | --- | --- | --- | --- | --- | --- | --- |
| Clc1ccccc1C(c1ccccc1)(c1ccccc1)n1ccnc1 [CTZ, clotrimazole] | abolished | successfully rescue the inducibility | significant induction | Significant activation | activation was seen |  |  |  |  |  |  |  |
| CC(=O)[C@H]1[C@H](C#N)C[C@H]2[C@@H]3CC=C4C[C@@H](O)CC[C@]4(C)[C@H]3CC[C@@]21C [PCN, pregnenolone-16-carbonitrile] | abolished | successfully rescue the inducibility | remained unchanged |  | activation was seen | can be activated | most potent and efficacious tested activators | preferentially activated | equally efficacious | weak activator | among the best activators | activated |
